This passage reports Ki results from patent US6291463A, “1-(Benzothiazol-2-yl)-4-(1-phenylmethyl) piperazines: dopamine receptor subtype specific ligands” (Neurogen Corporation, priority 1999, dated 2001).

The target in one experiment is D2 receptors (Chlorocebus aethiops, UniProt P52702). Kind of experiment: D2 receptor binding (displacement of 3H-YM 09151-2). Further details: species or system African Green monkey. The note with it: COS cells with recombinant D2 receptors; 0.5 nM 3H-YM 09151-2; Table 2. As for the experimental part: (§1) Assay for D2 and D4 Receptor Binding Activity
Sequence of D2 receptors (P52702 whole entry): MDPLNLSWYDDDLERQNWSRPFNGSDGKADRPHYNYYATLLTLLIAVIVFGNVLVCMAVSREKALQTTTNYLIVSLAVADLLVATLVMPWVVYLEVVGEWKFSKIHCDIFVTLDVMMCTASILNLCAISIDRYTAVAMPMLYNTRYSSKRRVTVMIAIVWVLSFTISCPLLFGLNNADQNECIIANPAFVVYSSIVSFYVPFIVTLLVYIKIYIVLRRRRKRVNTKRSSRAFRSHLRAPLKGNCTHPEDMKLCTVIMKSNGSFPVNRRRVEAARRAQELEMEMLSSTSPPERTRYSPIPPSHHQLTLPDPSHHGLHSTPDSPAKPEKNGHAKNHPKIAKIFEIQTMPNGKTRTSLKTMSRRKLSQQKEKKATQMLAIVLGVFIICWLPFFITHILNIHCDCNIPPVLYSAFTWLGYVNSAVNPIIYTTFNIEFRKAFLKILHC
(§2) Pellets of COS cells containing recombinantly produced D2 or D4 receptors from African Green monkey were used for the assays. The sample is homogenized in 100 volumes (w/vol) of 0.05 M Tris HCl buffer at 4° C. and pH 7.4. The sample is then centrifuged at 30,000×g and resuspended and rehomogenized. The sample is then centrifuged as described and the final tissue sample is frozen until use. The tissue is resuspended 1:20 (wt/vol) in 0.05 M Tris HCl buffer containing 100 mM NaCl.
(§3) Incubations are carried out at […] and contain 0.4 ml of tissue sample, 0.5 nM ^3 H-YM 09151-2 (Nemonapride, cis-5-Chloro-2-methoxy-4-(methylamino)-N-(2-methyl-2-(phenylmethyl)-3-pyrroli-dinyl)benzamide) and the compound of interest in a total incubation of 1.0 ml. Nonspecific binding is defined as that binding found in the presence of 1 mM spiperone; without further additions, nonspecific binding is less than 20% of total binding.

The target in a further experiment is D4 receptors. In words: D4 receptor binding (displacement of 3H-YM 09151-2). Further details: species or system African Green monkey. The note with it: COS cells with recombinant D4 receptors; 0.5 nM 3H-YM 09151-2; Table 2. On the procedure: as §1, §2, §3

Structures can show the parent of a compound that is named as a salt. Bounds are passed on as bounds.

As for `Cc1ccc(CN2CCN(c3nc4ccccc4s3)CC2)cc1` [Compound 2A, 1-(benzothiazol-2-yl)-4-(1-[4-methylphenyl]methyl)piperazine oxalate], the Ki on D2 receptors was 3510 nM; at D4 receptors, 25 nM.
For `c1ccc2cc(CN3CCN(c4nc5ccccc5s4)CC3)ccc2c1` [Compound 4A, 1-(benzothiazol-2-yl)-4-(1-[2-naphthyl]methyl)piperazine oxalate], in that order: 3510 nM and 76 nM.
For `Clc1ccc(CN2CCN(c3nc4ccccc4s3)CC2)cc1` [Compound 1A, 1-(Benzothiazol-2-yl)-4-(1-[4-chlorophenyl]methyl)piperazine], in that order: greater than 4000 nM and 14 nM.
